From patent US20220168201A1, “USE OF DIANHYDROHEXITOL FOR PRESERVING COSMETIC PREPARATIONS” (ROQUETTE FRERES, priority 2019, published 2022)

How the values were obtained:
[1] = tested on: Candida albicans; conditions: U.S. Pat. No. 9,295,626, col. 27, Table 2; cited from earlier work
[2] = tested on: Aspergillus brasiliensis; conditions: U.S. Pat. No. 9,295,626, col. 27, Table 2; cited from earlier work
[3] = tested on: Staphylococcus epidermidis; experiment: In-vitro effect on microbial strains: population count over 28 days, Staphylococcus epidermidis; type: cell-based; conditions: for Number of colony-forming strains after: 24 h / Number of colony-forming strains after: 7 days / Number of colony-forming strains after: 14 days / Number of colony-forming strains after: 21 days / Number of colony-forming strains after: 28 days: inoculum 1.43 × 10^5, 22° C.
Method: (§1) The samples are prepared under sterile conditions and deposited in microplates (2-ml wells) with the concentrations hereunder. Two analysis controls were carried out: • a positive control corresponding to 0.5% Phenonip®; • a negative control consisting of 0.85% physiological saline solution. Samples and controls are contaminated with three bacterial strains, namely Staphylococcus epidermidis, Corynebacterium xerosis, and Propionobacterium acnes, at a rate of approximately […] to 4.15×10^5 colony-forming units per milliliter, denoted cfu/ml; and a fungal strain, namely Malassezia furfur, at a rate of approximately 1.50×104 to 3.80×10^4 cfu/ml. After contamination, the samples are carefully mixed by suction and discharge cycles in order to ensure a uniform distribution of the microorganism. The whole is incubated at 22° C. during 28 days. The microbial population is sampled and counted at 24 hours and 7, 14, 21 and 28 days for each microbial strain. The contaminated samples are collected and then deposited in serial dilutions in microtiter plates, in the presence of culture medium, which is a saline solution with 0.85% sodium chloride, and a dehydrogenase activity indicator reagent, which is 2,3,5-triphenyltetrazolium chloride (denoted TTC). The results are presented in the following pages with the variation of the microbial population over the 28 days of study, for the tested microbial strain. The measurements of microbial populations in the samples collected at each time, are carried out according to the following microtiter method, for one sample collection. In the 96 wells with a volume of 250 μL of a microtiter plate, 20 μL of the collected sample are diluted by a factor of 10 by dispersion in 180 μL of Letheen broth (Difco, ref. 268110) containing 1.5% of Tween 80 (Sigma, ref. […]) and TTC (Sigma, ref. […]). The microplate is incubated for 48 hours at 32.5° C., and the growth of the microorganisms is monitored by the color change, from colorless to red/pink. The highest reciprocal dilution indicating a growth makes it possible to determine the log number of each microorganism at each time. The measurements of microbial populations taken at each collection time are expressed as colony forming units/ml.

[4] = tested on: Staphylococcus aureus; conditions: U.S. Pat. No. 9,295,626, col. 27, Table 2; cited from earlier work
[5] = tested on: Malassezia furfur; experiment: In-vitro effect on microbial strains: population count over 28 days, Malassezia furfur; type: cell-based; conditions: for Number of colony-forming strains after: 24 h / Number of colony-forming strains after: 7 days / Number of colony-forming strains after: 14 days / Number of colony-forming strains after: 21 days / Number of colony-forming strains after: 28 days: inoculum 1.5 × 10^4, 22° C.
Method: as §1

[6] = tested on: Propionobacterium acnes; experiment: In-vitro effect on microbial strains: population count over 28 days, Propionobacterium acnes; type: cell-based; conditions: for Number of colony-forming strains after: 24 h / Number of colony-forming strains after: 7 days / Number of colony-forming strains after: 14 days / Number of colony-forming strains after: 21 days / Number of colony-forming strains after: 28 days: inoculum 3.98 × 10^5, 22° C.
Method: as §1

[7] = tested on: Corynebacterium xerosis; experiment: In-vitro effect on microbial strains: population count over 28 days, Corynebacterium xerosis; type: cell-based; conditions: for Number of colony-forming strains after: 24 h / Number of colony-forming strains after: 7 days / Number of colony-forming strains after: 14 days / Number of colony-forming strains after: 21 days / Number of colony-forming strains after: 28 days: inoculum 3.2 × 10^5, 22° C.
Method: as §1

[8] = after 24 hours, the three doses tested (1%, 5%, 9%)
[9] = after 24 hours, doses 1%, 5%, 9%

O[C@@H]1CO[C@H]2[C@@H]1OC[C@@H]2O [isosorbide, 1,4-3,6-dianhydrosorbitol]
minimum inhibitory concentration [1]: 10%
minimum inhibitory concentration [2]: 10%
reduction of the number of colony-forming strains [3, 8]: at least 2 log 10
colony-forming strains observed ([3]; after 7 days): no more colony-forming strains
Number of colony-forming strains after: 24 h ([3]; isosorbide dose 1%): 4 × 10^3 colony forming units/ml
Number of colony-forming strains after: 7 days ([3]; isosorbide dose 1%): 0 colony forming units/ml
Number of colony-forming strains after: 14 days ([3]; isosorbide dose 1%): 0 colony forming units/ml
Number of colony-forming strains after: 21 days ([3]; isosorbide dose 1%): 0 colony forming units/ml
Number of colony-forming strains after: 28 days ([3]; isosorbide dose 1%): 0 colony forming units/ml
Number of colony-forming strains after: 24 h ([3]; isosorbide dose 5%): 1 × 10^3 colony forming units/ml
Number of colony-forming strains after: 7 days ([3]; isosorbide dose 5%): 0 colony forming units/ml
Number of colony-forming strains after: 14 days ([3]; isosorbide dose 5%): 0 colony forming units/ml
Number of colony-forming strains after: 21 days ([3]; isosorbide dose 5%): 0 colony forming units/ml
Number of colony-forming strains after: 28 days ([3]; isosorbide dose 5%): 0 colony forming units/ml
Number of colony-forming strains after: 24 h ([3]; isosorbide dose 9%): 7 × 10^2 colony forming units/ml
Number of colony-forming strains after: 7 days ([3]; isosorbide dose 9%): 0 colony forming units/ml
Number of colony-forming strains after: 14 days ([3]; isosorbide dose 9%): 0 colony forming units/ml
Number of colony-forming strains after: 21 days ([3]; isosorbide dose 9%): 0 colony forming units/ml
Number of colony-forming strains after: 28 days ([3]; isosorbide dose 9%): 0 colony forming units/ml
effect on the strain in words ([3]; summary of Table 4): weak bactericide
minimum inhibitory concentration [4]: 10%
colony-forming strains observed [5, 9]: no colony-forming strain is observed
Number of colony-forming strains after: 24 h ([5]; isosorbide dose 1%): 0 colony forming units/ml
Number of colony-forming strains after: 7 days ([5]; isosorbide dose 1%): 0 colony forming units/ml
Number of colony-forming strains after: 14 days ([5]; isosorbide dose 1%): 0 colony forming units/ml
Number of colony-forming strains after: 21 days ([5]; isosorbide dose 1%): 0 colony forming units/ml
Number of colony-forming strains after: 28 days ([5]; isosorbide dose 1%): 0 colony forming units/ml
Number of colony-forming strains after: 24 h ([5]; isosorbide dose 5%): 0 colony forming units/ml
Number of colony-forming strains after: 7 days ([5]; isosorbide dose 5%): 0 colony forming units/ml
Number of colony-forming strains after: 14 days ([5]; isosorbide dose 5%): 0 colony forming units/ml
Number of colony-forming strains after: 21 days ([5]; isosorbide dose 5%): 0 colony forming units/ml
Number of colony-forming strains after: 28 days ([5]; isosorbide dose 5%): 0 colony forming units/ml
Number of colony-forming strains after: 24 h ([5]; isosorbide dose 9%): 0 colony forming units/ml
Number of colony-forming strains after: 7 days ([5]; isosorbide dose 9%): 0 colony forming units/ml
Number of colony-forming strains after: 14 days ([5]; isosorbide dose 9%): 0 colony forming units/ml
Number of colony-forming strains after: 21 days ([5]; isosorbide dose 9%): 0 colony forming units/ml
Number of colony-forming strains after: 28 days ([5]; isosorbide dose 9%): 0 colony forming units/ml
effect on the strain in words ([5]; summary of Table 2): bactericide
colony-forming strains observed [6, 9]: no colony-forming strain is observed
Number of colony-forming strains after: 24 h ([6]; isosorbide dose 1%): 0 colony forming units/ml
Number of colony-forming strains after: 7 days ([6]; isosorbide dose 1%): 0 colony forming units/ml
Number of colony-forming strains after: 14 days ([6]; isosorbide dose 1%): 0 colony forming units/ml
Number of colony-forming strains after: 21 days ([6]; isosorbide dose 1%): 0 colony forming units/ml
Number of colony-forming strains after: 28 days ([6]; isosorbide dose 1%): 0 colony forming units/ml
Number of colony-forming strains after: 24 h ([6]; isosorbide dose 5%): 0 colony forming units/ml
Number of colony-forming strains after: 7 days ([6]; isosorbide dose 5%): 0 colony forming units/ml
Number of colony-forming strains after: 14 days ([6]; isosorbide dose 5%): 0 colony forming units/ml
Number of colony-forming strains after: 21 days ([6]; isosorbide dose 5%): 0 colony forming units/ml
Number of colony-forming strains after: 28 days ([6]; isosorbide dose 5%): 0 colony forming units/ml
Number of colony-forming strains after: 24 h ([6]; isosorbide dose 9%): 0 colony forming units/ml
Number of colony-forming strains after: 7 days ([6]; isosorbide dose 9%): 0 colony forming units/ml
Number of colony-forming strains after: 14 days ([6]; isosorbide dose 9%): 0 colony forming units/ml
Number of colony-forming strains after: 21 days ([6]; isosorbide dose 9%): 0 colony forming units/ml
Number of colony-forming strains after: 28 days ([6]; isosorbide dose 9%): 0 colony forming units/ml
effect on the strain in words ([6]; summary of Table 1): bactericide
reduction of the number of colony-forming strains [7, 8]: at least 3 log 10
colony-forming strains observed ([7]; after 7 days): no more colony-forming strains
Number of colony-forming strains after: 24 h ([7]; isosorbide dose 1%): 4 × 10^2 colony forming units/ml
Number of colony-forming strains after: 7 days ([7]; isosorbide dose 1%): 0 colony forming units/ml
Number of colony-forming strains after: 14 days ([7]; isosorbide dose 1%): 0 colony forming units/ml
Number of colony-forming strains after: 21 days ([7]; isosorbide dose 1%): 0 colony forming units/ml
Number of colony-forming strains after: 28 days ([7]; isosorbide dose 1%): 0 colony forming units/ml
Number of colony-forming strains after: 24 h ([7]; isosorbide dose 5%): 1 × 10^2 colony forming units/ml
Number of colony-forming strains after: 7 days ([7]; isosorbide dose 5%): 0 colony forming units/ml
Number of colony-forming strains after: 14 days ([7]; isosorbide dose 5%): 0 colony forming units/ml
Number of colony-forming strains after: 21 days ([7]; isosorbide dose 5%): 0 colony forming units/ml
Number of colony-forming strains after: 28 days ([7]; isosorbide dose 5%): 0 colony forming units/ml
Number of colony-forming strains after: 7 days ([7]; isosorbide dose 9%): 0 colony forming units/ml
Number of colony-forming strains after: 14 days ([7]; isosorbide dose 9%): 0 colony forming units/ml
Number of colony-forming strains after: 21 days ([7]; isosorbide dose 9%): 0 colony forming units/ml
Number of colony-forming strains after: 28 days ([7]; isosorbide dose 9%): 0 colony forming units/ml
effect on the strain in words ([7]; summary of Table 3): moderate bactericide
